Columns and labels:
Assay type in all cases: in vivo
Kochia (Kochia scoparia) [1] = experiment: Test A postemergence; conditions: Bassia scoparia, post-emergence, 240 h, Postemergence
Summary of the method: (§1)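 Greenhouse, ~10 d after spray; visual injury vs untreated controls, 0 = no effect, 100 = complete control. Preemergence: directed soil spray over planted seeds. Postemergence: plants 2–10 cm, 1–2 leaf stage. Loam/sand blend. Compound in non-phytotoxic solvent with surfactant.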

[2] = test system: pigweed (Amaranthus retroflexus); experiment: Test A postemergence; conditions: Amaranthus retroflexus, post-emergence, 240 h, Postemergence
Summary of the method: as §1

[3] = test system: wheat (Triticum aestivum); experiment: Test A postemergence; conditions: Triticum aestivum, post-emergence, 240 h, Postemergence
Summary of the method: as §1

[4] = test system: ragweed (common ragweed, Ambrosia elatior); experiment: Test A postemergence; conditions: Ambrosia artemisiifolia, post-emergence, 240 h, Postemergence
Summary of the method: as §1

[5] = test system: ryegrass, Italian (Italian ryegrass, Lolium multiflorum); experiment: Test A postemergence; conditions: Lolium multiflorum, post-emergence, 240 h, Postemergence
Summary of the method: as §1

corn (Zea mays) = experiment: Test A postemergence; conditions: Zea mays, post-emergence, 240 h, Postemergence
Summary of the method: as §1

[6] = test system: barnyardgrass (Echinochloa crus-galli); experiment: Test A postemergence; conditions: Echinochloa crus-galli, post-emergence, 240 h, Postemergence
Summary of the method: as §1

[7] = test system: blackgrass (Alopecurus myosuroides); experiment: Test A postemergence; conditions: Alopecurus myosuroides, post-emergence, 240 h, Postemergence
Summary of the method: as §1

[8] = test system: giant foxtail (Setaria faberii); experiment: Test A postemergence; conditions: Setaria faberi, post-emergence, 240 h, Postemergence
Summary of the method: as §1

[9] = test system: Galium (catchweed bedstraw, Galium aparine); experiment: Test A postemergence; conditions: Galium, post-emergence, 240 h, Postemergence
Summary of the method: as §1

Kochia (Kochia scoparia) [10] = experiment: Test A preemergence; conditions: Bassia scoparia, pre-emergence, 240 h
Summary of the method: as §1

[11] = test system: pigweed (Amaranthus retroflexus); experiment: Test A preemergence; conditions: Amaranthus retroflexus, pre-emergence, 240 h
[12] = test system: ragweed (common ragweed, Ambrosia elatior); experiment: Test A preemergence; conditions: Ambrosia artemisiifolia, pre-emergence, 240 h
Summary of the method: as §1

[13] = test system: ryegrass, Italian (Italian ryegrass, Lolium multiflorum); experiment: Test A preemergence; conditions: Lolium multiflorum, pre-emergence, 240 h, Preemergence, 125 g ai/ha; 0 to 100 scale (0 no effect, 100 complete control); read-out: Plant response rating, Ryegrass, Italian
Summary of the method: as §1

[14] = test system: giant foxtail (Setaria faberii); experiment: Test A preemergence; conditions: Setaria faberi, pre-emergence, 240 h
Summary of the method: as §1

CN1C[C@H](c2ccc3c(c2)CCO3)[C@@H](C(=O)Nc2ccc(F)c(F)c2F)C1=O [Compound 1323]
80%: pest or weed control at 125 g/ha (Kochia (Kochia scoparia) [10]; Preemergence, 125 g ai/ha, 0 to 100 scale (0 no effect, 100 complete control), read-out: Plant response rating, Kochia)
50%: plant injury at 125 g/ha ([3]; 125 g ai/ha, visual rating about 10 d after treatment, read-out: Wheat plant response rating (0 to 100 scale)) | pest or weed control at 500 g/ha ([4]; 500 g ai/ha, visual injury, 0 to 100 scale (0 no effect, 100 complete control), approx. 10 d, read-out: Plant response rating, Ragweed) | plant injury at 125 g/ha (corn (Zea mays); 125 g ai/ha, visual rating about 10 d after treatment, read-out: Corn plant response rating (0 to 100 scale)) | pest or weed control at 125 g/ha ([7]; 125 g ai/ha, visual rating about 10 d after treatment, read-out: Blackgrass plant response rating (0 to 100 scale)) | pest or weed control at 125 g/ha ([9]; 125 g ai/ha, visual rating about 10 d after treatment, read-out: Galium plant response rating (0 to 100 scale))
40%: pest or weed control at 125 g/ha ([5]; 125 g ai/ha, visual rating about 10 d after treatment, read-out: Ryegrass, Italian plant response rating (0 to 100 scale)) | pest or weed control at 500 g/ha ([11]; 500 g ai/ha, preemergence, 0 to 100 scale where 0 is no effect and 100 is complete control, read-out: Pigweed plant response rating)
90%: pest or weed control at 125 g/ha ([6]; 125 g ai/ha, visual rating about 10 d after treatment, read-out: Barnyardgrass plant response rating (0 to 100 scale, 0 no effect, 100 complete control)) | pest or weed control at 500 g/ha ([6]; 500 g ai/ha, visual injury, 0 to 100 scale (0 no effect, 100 complete control), approx. 10 d, read-out: Plant response rating, Barnyardgrass) | pest or weed control at 125 g/ha ([8]; 125 g ai/ha, visual rating about 10 d after treatment, read-out: Foxtail, Giant plant response rating (0 to 100 scale)) | pest or weed control at 500 g/ha ([8]; 500 g ai/ha, visual injury, 0 to 100 scale (0 no effect, 100 complete control), approx. 10 d, read-out: Plant response rating, Foxtail, Giant) | pest or weed control at 500 g/ha (Kochia (Kochia scoparia) [10]; 500 g ai/ha, preemergence, 0 to 100 scale where 0 is no effect and 100 is complete control, read-out: Kochia plant response rating) | pest or weed control at 500 g/ha ([14]; 500 g ai/ha, preemergence, 0 to 100 scale where 0 is no effect and 100 is complete control, read-out: Foxtail, Giant plant response rating) | pest or weed control at 125 g/ha ([14]; Preemergence, 125 g ai/ha, 0 to 100 scale (0 no effect, 100 complete control), read-out: Plant response rating, Foxtail, Giant)
20%: pest or weed control at 125 g/ha [13]
70%: pest or weed control at 500 g/ha (Kochia (Kochia scoparia) [1]; 500 g ai/ha, visual injury, 0 to 100 scale (0 no effect, 100 complete control), approx. 10 d, read-out: Plant response rating, Kochia) | plant injury at 500 g/ha ([3]; 500 g ai/ha, visual injury, 0 to 100 scale (0 no effect, 100 complete control), approx. 10 d, read-out: Plant response rating, Wheat) | pest or weed control at 500 g/ha ([5]; 500 g ai/ha, visual injury, 0 to 100 scale (0 no effect, 100 complete control), approx. 10 d, read-out: Plant response rating, Ryegrass, Italian) | Corn plant response rating (crop injury, 0 = no effect, 100 = complete kill) at 500 g/ha (corn (Zea mays); 500 g ai/ha, visual injury, 0 to 100 scale (0 no effect, 100 complete control), approx. 10 d) | pest or weed control at 500 g/ha ([12]; 500 g ai/ha, preemergence, 0 to 100 scale where 0 is no effect and 100 is complete control, read-out: Ragweed plant response rating)
0%: pest or weed control at 125 g/ha (Kochia (Kochia scoparia) [1]; 125 g ai/ha, visual rating about 10 d after treatment, read-out: Kochia plant response rating (0 to 100 scale)) | pest or weed control at 125 g/ha ([2]; 125 g ai/ha, visual rating about 10 d after treatment, read-out: Pigweed plant response rating (0 to 100 scale)) | pest or weed control at 500 g/ha ([2]; 500 g ai/ha, visual injury, 0 to 100 scale (0 no effect, 100 complete control), approx. 10 d, read-out: Plant response rating, Pigweed) | pest or weed control at 125 g/ha ([4]; 125 g ai/ha, visual rating about 10 d after treatment, read-out: Ragweed plant response rating (0 to 100 scale)) | pest or weed control at 125 g/ha ([11]; Preemergence, 125 g ai/ha, 0 to 100 scale (0 no effect, 100 complete control), read-out: Plant response rating, Pigweed) | pest or weed control at 125 g/ha ([12]; Preemergence, 125 g ai/ha, 0 to 100 scale (0 no effect, 100 complete control), read-out: Plant response rating, Ragweed)
60%: pest or weed control at 500 g/ha ([7]; 500 g ai/ha, visual injury, 0 to 100 scale (0 no effect, 100 complete control), approx. 10 d, read-out: Plant response rating, Blackgrass) | pest or weed control at 500 g/ha ([9]; 500 g ai/ha, visual injury, 0 to 100 scale (0 no effect, 100 complete control), approx. 10 d, read-out: Plant response rating, Galium)

Source: patent publication US12077503B2, “Substituted cyclic amides and their use as herbicides” (FMC CORPORATION, priority 2015, dated 2024)
